Earlier results on two compounds are cited in patent US7803755B2, “Molecules for the treatment and prevention of fungal diseases” (priority 2006, dated 2010).

Counter-ions that a name gives are not always drawn.

Series [1] has as its system onychomycosis. Particulars: after using ciclopirox lacquer.
For series [2], the system named is Candida species, including Candida albicans.
Series [3] has as its system Trichophyton rubrum, Trichophyton mentagrophytes, Trichophyton tonsurans, Epidermophyton floccosum, Microsporum canis, Microsporum audouini, and Microsporum …. Particulars: wide spectrum of organisms.

As to `Cc1cc(C2CCCCC2)n(O)c(=O)c1` [Ciclopirox], the “patients rating their onychomycosis as improved” value in series [1] is listed as 90%. Regarding `CN(C/C=C/c1ccccc1)Cc1cccc2ccccc12` [Naftifine hydrochloride, naftifine hydrochloride], the “antifungal activity in vitro” value is recorded as “fungistatic activity” in series [2] and “fungicidal activity” in series [3].
